Data on one molecule can be found in article PMC8557901 (Microbiology Spectrum, 2021).

Where two headings read alike, the source gives them in different places.

Data set [1] deals with P. falciparum sporozoites invading primary human hepatocytes. Put plainly: Hepatocyte invasion by preincubated P. falciparum sporozoites. The following applies: Plasmodium falciparum, Hepatocyte, in Homo sapiens, sporozoites preincubated 1 h; for inhibition at 1 µM: read-out: inhibition of invasion of sporozoites into hepatocytes, 1 μM; for inhibition at 10 µM: read-out: inhibition of invasion of sporozoites into hepatocytes, 10 μM; for inhibition at 100 µM: read-out: inhibition of invasion of sporozoites into hepatocytes, 100 μM. The method, then: On the day of infection, 3 · 10^4 sporozoites of P. falciparum, P. yoelii, and P. cynomolgi were added to their respective host cell cultures (human, murine, and simian). The infected culture plates were centrifuged for 10 min at 900 × g, allowing fast parasite sedimentation, and further incubated with serial dilutions of M1. Culture medium containing the appropriate drug concentration was refreshed daily, and cells were fixed at 48 h postinfection (p.i.) for infections with P. yoelii, 6 days p.i. for P. falciparum, or 8 days p.i. for P. cynomolgi. For the in vitro sporozoite invasion experiments, P. falciparum sporozoites were preincubated with 1, 10, and 100 μM M1 for 1 h at room temperature before hepatocyte infections. Three hours later, after sporozoite penetration into hepatocytes, cultures were washed and then further incubated with or without the presence of the drug during 6 days. DMSO was used as a negative control.
The number, size, and shape of the parasites were determined using a CellInsight high-content screening platform equipped with Studio HCS software (ThermoFisher Scientific). […] Host cell and parasite nuclei were labeled with DAPI (4′,6-diamidino-2-phenylindole). […] The custom script used for counting and measuring parasites first required identification of the objects based on a fluorescence intensity threshold. The object identity was then further validated based on size and morphological (shape) criteria. The presence of DAPI-associated fluorescence in the selected objects allowed their final selection and the rejection of false positives. […] The parasitic size reduction was calculated on the average object area using the total surface area of each selected object (μm^2).

Another data set can be described thus: Microsomal stability. As to conditions: pH 7.4; female mouse microsomes (CD-1), 37°C; read-out: half-life (t1/2). It is filed as in vitro ADME. The method, then:
The tested product and propranolol, used as a reference, were incubated in duplicate (reaction mixture volume of 0.5 ml) with female mouse microsomes (CD-1, 20 mg/ml; BD Gentest) at 37°C in a 50 mM phosphate buffer, pH 7.4, in the presence of MgCl2 (5 mM), NADP (1 mM), glucose-6-phosphate dehydrogenase (G6PD) (0.4 U/ml), and glucose-6-phosphate (5 mM). For the estimation of the intrinsic clearance, 50-μl aliquots were collected at 0, 5, 10, 20, 30, and 40 min and the reaction was stopped with 4 volumes of acetonitrile (ACN) containing the internal standard. After centrifugation at 10,000 × g for 10 min at 4°C, the supernatants were conserved at 4°C for immediate analysis or placed at −80°C in case of postponement of the analysis. Controls (time zero and final time point) in triplicate were prepared by incubation of the internal standard with microsomes denatured by acetonitrile. […] The chromatographic analysis, with a total duration of 4 min, was made with the following gradient: 0 < t < 0.2 min, 2% mobile phase B; 0.2 < t < 2 min, linear increase to 98% mobile phase B; 2 < t < 2.5 min, 98% mobile phase B; 2.5 < t < 2.6 min, linear decrease to 2% mobile phase B; 2.6 < t < 4 min, 2% mobile phase B. The quantification of each compound was obtained by converting the average of the ratios of the analyte/internal standard surfaces to the percentage of consumed product. […]

Data set [2] deals with P. falciparum strain K1 in RBC. In words: In vitro chemosensitivity assay, blood stage P. falciparum K1 (SYBR green I). It is filed as cell-based. As to conditions: Plasmodium falciparum, K1; erythrocytic stage, 72 h; read-out: EC50 (μM) for P. falciparum strain K1 in RBC. The method, then: Maintenance in continuous culture was done as described previously by Trager and Jensen ([46]). Cultures were maintained in fresh A+ human erythrocytes (EFS [French Blood Bank]) at 2.5% hematocrit in complete medium (RPMI 1640 with 25 mM HEPES, 25 mM NaHCO3, 10% A+ human serum) at 37°C under a reduced-O2 atmosphere (gas mixture of 10% O2, 5% CO2, and 85% N2). Parasitemia was maintained daily between 1% and 3%. The P. falciparum drug susceptibility test was carried out by comparing quantities of DNA in treated and control cultures of parasites in human erythrocytes according to a SYBR green I fluorescence-based method ([50]) using a 96-well fluorescence plate reader. Compounds, previously dissolved in DMSO (final concentration, less than 0.5% vol/vol), were incubated in a total assay volume of 200 μl of synchronized culture suspension (2% hematocrit and 0.4% parasitemia) for 72 h in a humidified atmosphere (85% N2, 10% O2, and 5% CO2) at 37°C in 96-well flat-bottom plates. Duplicate assays were performed for each sample. After incubation, plates were frozen at −20°C for 24 h. Then, the frozen plates were thawed for 1 h at 37°C. Fifteen microliters of each sample was transferred to 96-well flat-bottom black plates (Greiner Bio-one) already containing 15 μl of the SYBR green I lysis buffer (2× SYBR green I, 20 mM Tris base, pH 7.5, 20 mM EDTA, 0.008% [wt/vol] saponin, 0.08% [wt/vol] Triton X-100). […] Plates were incubated for 15 min at 37°C and then read on a Tecan Infinite F-200 spectrophotometer with excitation and emission wavelengths at 485 and 535 nm, respectively. […] EC50K1 values represent the mean values calculated from three independent experiments.

A further data set has as its system Plasmodium berghei. Also noted: method as in PMID 25791675. As to conditions: 2.5 mg/kg twice a day for 3 days; untreated group 9%; cited from earlier work.
The mark [3] stands for this setting: cultures additionally treated until day 6.
Where [4] appears, read: cultures then without drug for 6 days.

Consider `Cc1ccc(-c2cc3nc(NC(C)(C)C)[nH]c(=O)c3s2)cc1` [Metabolite M1, 2-(tert-Butylamino)-6-(p-tolyl)thieno[3,2-d]pyrimidin-4(3H)-one], for which, in data set [1] (setting [3]), the inhibition at 1 µM stood at 80%, the inhibition at 10 µM came out at 100% and the inhibition at 100 µM is 100%. Moreover, in data set [1] (setting [4]), the inhibition at 1 µM came to 30%, the inhibition at 10 µM was 60% and the inhibition at 100 µM is roughly 100%. For the same molecule, in “Microsomal stability”, the half-life worked out at 11 min. Moreover, in data set [2], the EC50 is 0.045 µM. Also, the “parasitemia at day 4” value in the data set with Plasmodium berghei is 4.9%.
